Like-named read-outs stand apart in the source and are kept apart here.
Assays:
[1] = tested on: HepG2 cells; details: cited from earlier work
[2] = tested on: HepG2 cells, primary human hepatocytes; details: In vitro Assay; ref Garside 2014; cited from earlier work
[3] = tested on: HepG2 cells; details: cited from earlier work; remark: listed apart in the source
[4] = tested on: human hepatocytes; details: cited from earlier work
[5] = tested on: HepG2 C3A spheroid, BSEP, Glu/Gal in HepG2 cells, bioactivation; details: cited from earlier work
[6] = tested on: HepG2 cells; details: cited from earlier work; remark: listed apart in the source
[7] = read-out: Human plasma Cmax; total plasma Cmax.tot, median of 9 literature references; cited from earlier work
[8] = tested on: PHH spheroids; details: cited from earlier work
[9] = tested on: PHH; details: cited from earlier work
[10] = tested on: Upcyte human hepatocytes; details: In vitro Assay; ref Tolosa 2019; cited from earlier work
[11] = tested on: hLiMTs; details: cited from earlier work
[12] = Plasma free fraction (fu) and unbound Cmax (Cmax,u); type: in vitro ADME, human; details: unbound plasma Cmax
Experimental: The prediction of DILI severity was evaluated further using the 3D combined HCI assays using plasma-free fraction. The majority of fu values were obtained from literature, when unavailable in-house prediction was utilised. Unbound plasma Cmax concentrations (Cmax,u) were derived by multiplying total plasma Cmax with the corresponding free fraction (fu) for each compound.

[13] = cited from earlier work
[14] = ref Chen 2011; cited from earlier work
[15] = tested on: rBsep; details: cited from earlier work
[16] = tested on: THLE or HepG2 cells, isolated mitochondria, BSEP; details: cited from earlier work
[17] = tested on: hLiMTs; assay: Combined HCI (HCS) and cellular ATP 3D assay in hLiMTs; details: for AC50 / minimal effective concentration: Homo sapiens
Experimental: 3D spheroid models consisting of either primary human hepatocytes with non-parenchymal cells (hLiMT’s) or HepaRG cells (HepaRG spheroids) were assessed for size (MS), oxidative stress (OS), MMP, mitochondrial mass (MM), GSH and cellular ATP content following drug exposure. Fluorescent images are acquired using the confocal mode of an ArrayScan™ XTI HCI reader (ThermoScientific) following which cellular ATP was measured using 3D CellTiter-Glo (Promega).

[18] = tested on: THLE-Null and THLE-3A4 cells; details: In vitro Assay; ref Gustafsson 2014; cited from earlier work
[19] = cited from earlier work; remark: listed apart in the source
[20] = tested on: HepaRG spheroids; assay: Combined HCI (HCS) and cellular ATP 3D assay in HepaRG spheroids; details: for AC50 / minimal effective concentration: Homo sapiens
[21] = plasma free fraction; cited from earlier work
[22] = In vitro Assay, ref Persson 2013
[23] = In vitro Assay, ref Proctor 2017
[24] = Modeled in vitro assays (cytotoxicity, mitochondrial dysfunction, BSEP), ref Aleo et al. 2019
[25] = Microtissue model structural based (HCI), combined HCS and ATP, MEC < 25 × Cmax.tot cut-off

CN(C)CCCN1c2ccccc2Sc2ccc(Cl)cc21 [chlorpromazine, reference compound]
Cluser analysis [1, 22]: +VE
Structural based (HCI) [1, 22]: +VE
DILI in vitro assay prediction, Persson (2013) ([1]; Structural based (HCI), HepG2, ref Persson et al. 2013): +VE
Cluster 1-6 +VE Assay [2]: +VE
Structural based (HCI) ([3]; In vitro Assay, ref Tolosa 2012): +VE
DILI in vitro assay prediction, Tolosa (2012) ([3]; Structural based (HCI), HepG2, ref Tolosa et al. 2012): +VE
Structural based (HCI) ([4]; In vitro Assay, ref Xu 2008): +VE
DILI in vitro assay prediction, Xu (2008) ([4]; Structural based (HCI), human hepatocytes, ref Xu et al. 2008): +VE
Bayesian Machine Learning DILI prediction, Williams (2019) ([5]; Bayesian modeling, ref Williams et al. 2019): +VE
Bayesian Machine Learning ([5]; In vitro Assay, ref Williams 2019): +VE
Structural based (HCI) ([6]; In vitro Assay, ref O'Brien 2006): +VE
DILI in vitro assay prediction, O'Brien (2006) ([6]; Structural based (HCI), HepG2, ref O'Brien et al. 2006): +VE (lowest HCI endpoint IC50 (or in the absence of dose–response < 100 µM) < 30 × total human plasma exposure levels (Cmax.tot))
Cmax [7]: 941 nM
hLiMTs ATP <20 x Cmax ([8]; In vitro Assay, ref Vorrink 2018): +VE (IC20 < 20 × Cmax.tot cut-off)
DILI in vitro assay prediction, Vorrink (2018) ([8]; PHH spheroids, ATP, 14 days, IC20 < 20 × Cmax.tot, ref Vorrink et al. 2018): +VE (IC20 < 20 × Cmax.tot cut-off)
PHH/100xCmax, Proctor (2017) ([9]; 2D PHH, ATP, IC50 < 100 × Cmax.tot, ref Proctor et al. 2017): +VE (IC50 < 100 × Cmax.tot)
PHH/100uM, Proctor (2017) ([9]; 2D PHH, ATP, IC50 threshold 100 µM, ref Proctor et al. 2017): +VE (IC50 threshold of 100 µM)
PHH ATP <100uM [9, 23]: +VE (IC50 threshold of 100 µM)
Upcytes multi donor assay 14day data [10]: +VE
hLiMTs ATP <100uM [11, 23]: +VE (IC50 threshold of 100 µM)
hLiMTs/100xCmax, Proctor (2017) ([11]; hLiMTs, ATP, IC50 < 100 × Cmax.tot, ref Proctor et al. 2017): +VE (IC50 < 100 × Cmax.tot)
hLiMTs/100uM, Proctor (2017) ([11]; hLiMTs, ATP, IC50 threshold 100 µM, ref Proctor et al. 2017): +VE (IC50 threshold of 100 µM)
Human plasma Cmax,u [12]: 47 nM
DILI severity category (Chen et al. [2016]) ([13]; LTKB DILIrank category, ref Chen et al. 2016): Less
DILI severity category (Chen 2016) ([13]; human DILI classification, LTKB DILIrank, ref Chen et al. 2016): Less
DILI severity category ([13]; human DILI severity, ref Chen et al.): Less
DILI +VE (5-8), DILI -VE (-4) ([13]; ref Chen 2016): +VE
DILI severity category ([13]; ref Chen 2016): vLess-DILI-Concern
DILI Score (FDA) (1-8) [14]: 2
Inhibition of rBsep cutoff<1& cmax u>.2 ([15]; In vitro Assay, ref Dawson 2012): -VE
Inhibition of rBsep cutoff<3 [15]: +VE
Partition Hybrid HRM Score ([16]; In vitro Assay, ref Aleo 2019): +VE
Ro2 Hybrid HRM Score ([16]; In vitro Assay, ref Aleo 2019): +VE
Partition Hybrid HRM Score ≥4, Aleo (2019) [16, 24]: +VE (Partition Hybrid HRM Score ≥4)
Partition Hybrid HRM Score ≥8, Aleo (2019) [16, 24]: -VE
Rule of Two hybrid HRM Score ≥3, Aleo (2019) [16, 24]: +VE (Rule of Two hybrid HRM Score ≥3)
Rule of Two hybrid HRM Score ≥8, Aleo (2019) [16, 24]: -VE
AC50 ([17]; read-out: ATP endpoint AC50): 3.73 µM
minimal effective concentration ([17]; read-out: ATP endpoint MEC): 2.7 µM
AC50 ([17]; read-out: HCS endpoint AC50): 6.41 µM
minimal effective concentration ([17]; read-out: HCS endpoint MEC): 2.47 µM
DILI prediction hLiMTs (HCS-MEC) [17, 25]: +VE (MEC < 25 × Cmax.tot cut-off)
hLiMTs <25x Avg Cmax ATP ([17]; hLiMTs, ATP endpoint, cut-off <25x Avg Cmax): +ve
hLiMTs <100x Avg Cmaxu ATP ([17]; hLiMTs, ATP endpoint, cut-off <100x Avg Cmaxu): +ve (<100x Avg Cmaxu)
hLiMTs <25x Avg Cmax HCS ([17]; hLiMTs, HCS endpoints, cut-off <25x Avg Cmax): +ve
hLiMTs <100x Avg Cmaxu HCS ([17]; hLiMTs, HCS endpoints, cut-off <100x Avg Cmaxu): +ve (<100x Avg Cmaxu)
hLiMTs <25x Avg Cmax All ([17]; hLiMTs, all endpoints (ATP and HCS), cut-off <25x Avg Cmax): +ve
hLiMTs Cmax max All ([17]; hLiMTs, all endpoints, Cmax max used): +ve
hLiMTs Cmax min All ([17]; hLiMTs, all endpoints, Cmax min used): +ve
hLiMTs <10 uM All ([17]; hLiMTs, all endpoints, cut-off <10 uM): +ve (<10 uM)
hLiMTs <100x Avg Cmaxu All ([17]; hLiMTs, all endpoints, cut-off <100x Avg Cmaxu): +ve (<100x Avg Cmaxu)
THLE-Null [18]: +VE
Assigned DILI category ([19]; Chen et al. 2016 or literature alignment, ref Chen et al. 2016): 2
In vivo DILI ([19]; […]): +VE
In vivo DILI ([19]; ref Aleo 2019): +VE
In vivo DILI ([19]; ref Dawson 2012): +VE
In vivo DILI ([19]; ref Garside 2014): +VE
In vivo DILI ([19]; ref Gustafsson 2014): +VE
In vivo DILI ([19]; ref O'Brien 2006): +VE
In vivo DILI ([19]; ref Persson 2013): +VE
In vivo DILI ([19]; ref Proctor 2017): +VE
In vivo DILI ([19]; ref Tolosa 2012): +VE
In vivo DILI ([19]; ref Tolosa 2019): +VE
In vivo DILI ([19]; ref Vorrink 2018): +VE
In vivo DILI ([19]; ref Williams 2019): +VE
In vivo DILI ([19]; ref Xu 2008): +VE
HepaRG <25x Avg Cmax ATP ([20]; HepaRG, ATP endpoint, cut-off <25x Avg Cmax): +ve
HepaRG <100x Avg Cmaxu ATP ([20]; HepaRG, ATP endpoint, cut-off <100x Avg Cmaxu): +ve (<100x Avg Cmaxu)
HepaRG <25x Avg Cmax HCS ([20]; HepaRG, HCS endpoints, cut-off <25x Avg Cmax): +ve
HepaRG <100x Avg Cmaxu HCS ([20]; HepaRG, HCS endpoints, cut-off <100x Avg Cmaxu): +ve (<100x Avg Cmaxu)
HepaRG <25x Avg Cmax All ([20]; HepaRG, all endpoints (ATP and HCS), cut-off <25x Avg Cmax): +ve
HepaRG Cmax max All ([20]; HepaRG, all endpoints, Cmax max used): +ve
HepaRG Cmax min All ([20]; HepaRG, all endpoints, Cmax min used): +ve
HepaRG <10 uM All ([20]; HepaRG, all endpoints, cut-off <10 uM): +ve (<10 uM)
HepaRG <100x Avg Cmaxu All ([20]; HepaRG, all endpoints, cut-off <100x Avg Cmaxu): +ve (<100x Avg Cmaxu)
AC50 ([20]; HepaRG, read-out: ATP endpoint AC50): 6.33 µM
minimal effective concentration ([20]; HepaRG, read-out: ATP endpoint MEC): 3.45 µM
AC50 ([20]; HepaRG, read-out: HCS endpoint AC50): 8.8 µM
minimal effective concentration ([20]; HepaRG, read-out: HCS endpoint MEC): 1.72 µM
DILI prediction HepaRG spheroids (HCS-MEC) [20, 25]: +VE (MEC < 25 × Cmax.tot cut-off)
fu [21]: 0.050
